According to article PMC12492365, “Drug Interaction of Dasatinib with Thymoquinone: A Pharmacokinetic Study in Rats” (International Journal of Medical Sciences, 2025):
Like-named read-outs stand apart in the source and are kept apart here.

Experiments:
[1] = test system: CYP3A2; assay: Western blot of CYP3A2 protein expression in liver and lumen tissues; format: in vivo, Wistar rats; settings: for Elevation of CYP3A2 protein expression: DAS 25 mg/kg p.o. vs normal controls; for Suppression of CYP3A2 upregulation: TQ 40 mg/kg p.o. seven days in DAS-treated rats vs DAS group
Experimental: The adult male Wistar rats (204-226 g) were procured from the College of Pharmacy Animal Care and Use Facility, King Saud University, Riyadh, Saudi Arabia. The animals were hold in polycarbonate rat cages, with 12h light/dark cycle at 25 ± 2 °C. All groups were allowed ad libitum before the study. This study was conducted following the ethical guidelines approved by the facility and the study was approved by the King Saud University College of Pharmacy Research Ethics Committee (KSU-SE-21-58). Overnight fasted animals (n=24) were divided into four groups (n=6 per group). Group I (normal controls) and Group II were administered normal saline by oral gavage for seven consecutive days. […] Group IV received TQ (40 mg/kg/day) by oral gavage for seven consecutive days. […] The collected blood was centrifuged at 3000 ×g for 10 minutes to separate the plasma, which was then collected and stored in Eppendorf tubes for UHPLC-MS/MS analysis. After completion of the study, the animals were euthanized, and liver and lumen tissues were collected for Western blot analysis. […] Briefly, DAS and ibrutinib (IBR;(internal standard, IS) were separated on an Acquity BEH C18 column. Prior to sample analysis, the method underwent validation for precision and accuracy. A non-compartmental analysis was empoyed to calculate the PK parameters of DAS using the PK Solver software (version 1.01). The liver and intestine tissues were homogenized in RIPA lysis buffer and incubated for 30 minutes, followed by centrifugation at 10,000 rpm for 20 minutes at 4 °C. The supernatants were then collected and stored at -20 °C. Total protein content was determined using the bicinchoninic acid (BCA) assay. Protein expression of CYP3A2, Pgp, and BCRP proteins were analyzed according to previously published methods, [17], [34], [35]. All data are expressed as the mean ± SEM.

[2] = test system: Pgp; assay: Western blot of Pgp protein expression in liver and lumen tissues; format: in vivo, Wistar rats; settings: for Increase of Pgp expression: DAS 25 mg/kg p.o. vs untreated animals; for Suppression of Pgp expression: TQ pretreatment in DAS-treated rats vs DAS group
Experimental: (§1) The adult male Wistar rats (204-226 g) were procured from the College of Pharmacy Animal Care and Use Facility, King Saud University, Riyadh, Saudi Arabia. The animals were hold in polycarbonate rat cages, with 12h light/dark cycle at 25 ± 2 °C. All groups were allowed ad libitum before the study. This study was conducted following the ethical guidelines approved by the facility and the study was approved by the King Saud University College of Pharmacy Research Ethics Committee (KSU-SE-21-58). Overnight fasted animals (n=24) were divided into four groups (n=6 per group). Group I (normal controls) and Group II were administered normal saline by oral gavage for seven consecutive days. On the seventh day, Group II received a single dose of DAS (25 mg/kg, p.o.) via oral gavage. Group III received TQ (40 mg/kg, p.o.) via oral gavage for seven days, and two hours after the final TQ dose, DAS (25 mg/kg, p.o.) was administered by oral gavage. Group IV received TQ (40 mg/kg/day) by oral gavage for seven consecutive days. For the PK study, blood samples were collected via a tail vein in heparinized vacutainers at various time intervals (i.e., 0, 0.5, 1, 2, 4, 6, 8, 10, 12 h post DAS dosing). The collected blood was centrifuged at 3000 ×g for 10 minutes to separate the plasma, which was then collected and stored in Eppendorf tubes for UHPLC-MS/MS analysis. After completion of the study, the animals were euthanized, and liver and lumen tissues were collected for Western blot analysis. DAS concentrations in plasma samples were determined using an UHPLC-MS/MS method according to a previously described method. Briefly, DAS and ibrutinib (IBR;(internal standard, IS) were separated on an Acquity BEH C18 column. Prior to sample analysis, the method underwent validation for precision and accuracy. A non-compartmental analysis was empoyed to calculate the PK parameters of DAS using the PK Solver software (version 1.01).
(§2) The liver and intestine tissues were homogenized in RIPA lysis buffer and incubated for 30 minutes, followed by centrifugation at 10,000 rpm for 20 minutes at 4 °C. The supernatants were then collected and stored at -20 °C. Total protein content was determined using the bicinchoninic acid (BCA) assay. Protein expression of CYP3A2, Pgp, and BCRP proteins were analyzed according to previously published methods, [17], [34], [35].
(§3) All data are expressed as the mean ± SEM. The pharmacokinetic and protein expression data were compared using one-way analysis of variance followed by Dunnett's test and a p value of ≤0.05 was used for statistical significance.

[3] = Pharmacokinetic study of oral dasatinib with and without TQ pretreatment, plasma UHPLC-MS/MS, non-compartmental analysis; format: in vivo, Wistar rats; settings: rats
Experimental: as §1, §3

[4] = test system: BCRP; assay: Western blot of BCRP protein expression in liver and lumen tissues; format: in vivo, Wistar rats; settings: for Induction of BCRP protein expression: oral DAS vs untreated animals; for Inhibition of BCRP protein expression: TQ pretreatment in the DAS treatment group
Experimental: as §1, §2, §3

[5] = test system: rats; settings: 30 mg/kg, no reference given; cited from earlier work
[6] = test system: wistar rats; parameters: method as in PMID 23440704, PMID 32273798; settings: ref [46], [47], cited from earlier work
[7] = DAS 25 mg/kg p.o. alone, mean ±SEM
[8] = DAS+TQ vs DAS alone, positive = increase
[9] = TQ pretreatment vs control (DAS alone), given as decrease
[10] = male, Wistar, rat, plasma, po, DAS 25 mg/kg p.o. alone, mean ±SEM

## Cc1nc(Nc2ncc(C(=O)Nc3c(C)cccc3Cl)s2)cc(N2CCN(CCO)CC2)n1 [DAS, Dasatinib]
[1]; liver
  Elevation of CYP3A2 protein expression: 91.84%
[1]; lumen
  Elevation of CYP3A2 protein expression: 93.47%
[2]; liver
  Increase of Pgp expression: 75.62%
[2]; lumen
  Increase of Pgp expression: 77.19%
[3]; [7]
  AUMC0-∞: 29259.52 ±3397.55 ng/ml*h^2
  CL: 0.01 ±0.00 (mg/kg)/(ng/ml)/h
  Vd: 0.11 ±0.00 (mg/kg)/(ng/ml)
[3]; [8]
  % Change in AUC0-t of DAS: 166.53%
  % Change in AUMC0-∞ of DAS: 0.34%
  % Change in Cmax of DAS: 213.26%
  % Change in Kel of DAS: 93.85%
  % Change in Tmax of DAS: 83.33%
[3]; [9]
  Decrease (reduction) in CL of DAS: 36.35%
  Decrease (reduction) in Vd of DAS: 67.70%
  Decrease in MRT of DAS: 49.12%
[3]; [10]
  AUC(0-inf): 2500 ± 113 ng·h/mL
  AUC(0-t): 1610 ± 28.9 ng·h/mL
  Cmax: 246 ± 3.34 ng/mL
  MRT: 11.5 ± 0.81 h
  half-life: 466 ± 39 min
  k el: 2.5e-05 s⁻¹
[4]; liver
  Induction of BCRP protein expression: 74.82%
[4]; lumen
  Induction of BCRP protein expression: 76.05%
[5]
  Tolerability in acute toxicity studies: well tolerated

## CC1=CC(=O)C(C(C)C)=CC1=O [TQ, 2-Methyl-5-(propan-2-yl)cyclohexa-2,5-diene-1,4-dione]
[1]; TQ alone 40 mg/kg/day seven days vs normal controls
  Effect on CYP3A2 expressions: did not significantly altered
[1]; liver
  Suppression of CYP3A2 upregulation: 53.98%
[1]; lumen
  Suppression of CYP3A2 upregulation: 40.30%
[2]; TQ pretreatment alone vs untreated animals
  Effect on liver and lumen Pgp protein expressions: did not affect
[2]; liver
  Suppression of Pgp expression: 47.97%
[2]; lumen
  Suppression of Pgp expression: 37.72%
[4]; TQ treatment alone vs normal controls
  Effect on liver and lumen BCRP protein levels: no significant changes
[4]; liver
  Inhibition of BCRP protein expression: 50.48%
[4]; lumen
  Inhibition of BCRP protein expression: 48.46%
[6]; i.p. injection, female rats
  maximum tolerated dose (MTD): 15 mg/kg
[6]; i.p. injection, male rats
  maximum tolerated dose (MTD): 22.5 mg/kg
[6]; oral, both male and female rats
  maximum tolerated dose (MTD): 250 mg/kg
